Assay results as given in patent US8323971B2, “Differentiation of pluripotent cells into primary germ layer progenitors” (Cambridge Enterprise Limited, priority 2006, dated 2012).

System: H9 hESCs
Experiment: Screening of culture conditions by immunostaining for Oct4, Sox2, Brachyury, Sox17
Format: cell-based, human
Parameters: key to Pluripotency Oct4, fraction of expressing cells / Neuro Sox2, fraction of expressing cells / Meso Brachyury, fraction of expressing cells / Endo Sox17, fraction of expressing cells: 0 for absence of expression; VL for expressing cells <1%; L for expressing cells <5%; H for expressing cells >10%; VH for expressing cells >50%
Conditions: Conditions CDM (CDM-BSA), 7 days or more
Description: Table 2 and Table 3 show the screening of culture conditions for inducing mesoendoderm differentiation into CDM. H9 hESCs were grown for 7 days or more in CDM-BSA or CDM-PVA supplemented with different growth factors (Activin, BMP4, FGF2) or inhibitors (SU5402 for FGF, SB431542 for Activin/Nodal/TGFβ, BIO for βCatenin). Then, immunostaining analysis were used to determine the fractions of cells expressing the pluripotent marker Oct-4, neuroectoderm marker Sox2, the mesoderm marker Brachyury, and the endoderm marker Sox17. The quantities of expressing cells were divided into five arbitrary categories. 0 for absence of expression, VL for expressing cells <1%, L for expressing cells <5%, H for expressing cells >10%, VH for expressing cells >50%. IN red are indicated the conditions allowing the generation of mesendoderm cells expressing Brachyury or Sox17.
HESCs or differentiated progenitors were fixed for 20 minutes at 4° C. in 4% paraformaldehyde (PFA) and then washed three times in PBS. Cells were incubated for 20 minutes at room temperature in PBS containing 10% goat serum (Serotec) and subsequently incubated over night at 4° C. with primary antibody diluted in 1% goat serum in PBS as follows: SSEA-3 (1:100, Santa Cruz), SSAE-1 (1:25), Tra-1-60 (1:100, Santa CruZ), Oct-4 (1:100, Abcam ab18976 or SantaCruz), Sox2 (1:100, Abcam ab15830), Alkaline Phophatase (1:50, Abcam ab17989), Brachyury (1:100, Abcam ab20680 or RandD systems), Sox17 (RandD systems), FoxA2 (1:50, Abcam ab5074), GATA4 (1:250, Santa CruZ), GATA6 (1:200, Abcam ab22600 or Santa Cruz), Vent-2 (1:100, Abcam ab20913), Goosecoid (1:25, Abcam ab21059), Wnt3A (1:100, Abcam ab19925), CXCR4 (1:100, RanD Systems or Pharmingen). Nestin (1:200, Abcam ab5968), NCAM (1:100, Abcam ab8077), GFAP (ZZ), Neurofilament (ZZ), βIII Tubulin (ZZ), Glutamate (ZZ), N-Cadherin (1:100, Abcam ab18203 or ZZ). Cells were then washed three times in PBS and incubated with fluorescein-Isothiocyanate-conjugated anti-mouse IgG or IgM (Sigma 1:200 in 1% goat serum in PBS) or rat IgM (Jackson laboratory 1:300 in goat serum in PBS) or rabbit IgG (Jackson laboratory 1:200 in donkey serum in PBS) for two hours at room temperature. Unbound secondary antibody was removed by 3 washes in PBS. Hoechst 33258 was added to the first wash (Sigma 1:10000).
We then developed a method for inducing differentiation of hESCs into the three primary germ layers. Culture conditions inductive for mesoderm, endoderm and neuroectoderm were screened using an approach based on immunostaining analyses for the expression of proteins specifically expressed by pluripotent cells (Oct-4), neuroectoderm progenitors (Sox2 in absence of Oct4), endoderm progenitors (Sox17) and mesoderm progenitors (Brachyury). In summary, hESCs grown in CDM (CDM-BSA or hu-CDM) were plated on fibronectin in CDM-BSA/AF or CDM-PVA/AF. Then cocktails of growth factors (BMP4, FGF2, Activin) or chemical inhibitors (SU5402, SB431542) were added at different times and for different periods. After 7 to 10 days treatment, cells were fixed and then the expression of Oct-4/Sox2, Sox17 and Brachyury was analysed using immunostaining. The effect of three growth factors on the differentiation of hESCs into the primary germ layers was systematically analysed in our screen. We also studied the function of FGF and Activin signalling pathways in the maintenance of the pluripotent state by analysing the effect of the SU5402, a chemical inhibitor of FGF receptors, and the SB431542, a chemical inhibitor of Activin/TGFβ receptors.

BMP4: Bone Morphogenetic Protein 4 growth factor
0: Endo Sox17, fraction of expressing cells | Meso Brachyury, fraction of expressing cells | Neuro Sox2, fraction of expressing cells | Pluripotency Oct4, fraction of expressing cells
